Results as given in ChEMBL document CHEMBL3407338, “Synthesis and structure-activity relationship of novel 1,4-diazabicyclo[2.2.2]octane derivatives as potent antimicrobial agents” (Eur J Med Chem, 2015).

Columns and labels:
[1] = test system: Bacillus subtilis; assay: Antimicrobial activity against Bacillus subtilis ATCC 6633 at 1 ug/ml after 24 hrs by agar diffusion method; type: functional; conditions: ATCC 6633, 24 h, read-out: DIZ
[2] = test system: Staphylococcus aureus; assay: Antimicrobial activity against Staphylococcus aureus ATCC 25923 at 1 ug/ml after 24 hrs by agar diffusion method; type: functional; conditions: ATCC 25923, 24 h, read-out: DIZ
[3] = test system: Pseudomonas aeruginosa; assay: Antimicrobial activity against Pseudomonas aeruginosa ATCC 9027 at 1 ug/ml after 24 hrs by agar diffusion method; type: functional; conditions: ATCC 9027, 24 h, read-out: DIZ
[4] = test system: Salmonella enterica; assay: Antimicrobial activity against Salmonella enterica ATCC 14028 at 1 ug/ml after 24 hrs by agar diffusion method; type: functional; conditions: ATCC 14028, 24 h, read-out: DIZ
[5] = test system: Escherichia coli; assay: Antimicrobial activity against Escherichia coli ATCC 25922 at 1 ug/ml after 24 hrs by agar diffusion method; type: functional; conditions: ATCC 25922, 24 h, read-out: DIZ
[6] = test system: Candida albicans; assay: Antimicrobial activity against Candida albicans ATCC 32354 at 1 ug/ml after 24 hrs by agar diffusion method; type: functional; conditions: ATCC 32354, 24 h, read-out: DIZ
[7] = test system: Bacillus subtilis; assay: Antimicrobial activity against 10^4 CFU/ml Bacillus subtilis ATCC 6633 after 22 hrs by serial microdilution method; type: functional; conditions: ATCC 6633, 22 h
[8] = test system: Bacillus subtilis; assay: Antimicrobial activity against 10^7 CFU/ml Bacillus subtilis ATCC 6633 after 22 hrs by serial microdilution method; type: functional; conditions: ATCC 6633, 22 h
[9] = test system: Pseudomonas aeruginosa; assay: Antimicrobial activity against 10^4 CFU/ml Pseudomonas aeruginosa ATCC 9027 after 22 hrs by serial microdilution method; type: functional; conditions: ATCC 9027, 22 h
[10] = test system: Pseudomonas aeruginosa; assay: Antimicrobial activity against 10^7 CFU/ml Pseudomonas aeruginosa ATCC 9027 after 22 hrs by serial microdilution method; type: functional; conditions: ATCC 9027, 22 h
[11] = test system: Staphylococcus aureus; assay: Antimicrobial activity against 10^4 CFU/ml Staphylococcus aureus ATCC 25923 after 22 hrs by serial microdilution method; type: functional; conditions: ATCC 25923, 22 h
[12] = test system: Staphylococcus aureus; assay: Antimicrobial activity against 10^7 CFU/ml Staphylococcus aureus ATCC 25923 after 22 hrs by serial microdilution method; type: functional; conditions: ATCC 25923, 22 h
[13] = test system: Escherichia coli; assay: Antimicrobial activity against 10^4 CFU/ml Escherichia coli ATCC 25922 after 22 hrs by serial microdilution method; type: functional; conditions: ATCC 25922, 22 h
[14] = test system: Escherichia coli; assay: Antimicrobial activity against 10^7 CFU/ml Escherichia coli ATCC 25922 after 22 hrs by serial microdilution method; type: functional; conditions: ATCC 25922, 22 h
[15] = test system: Salmonella enterica; assay: Antimicrobial activity against 10^4 CFU/ml Salmonella enterica ATCC 14028 after 22 hrs by serial microdilution method; type: functional; conditions: ATCC 14028, 22 h
[16] = test system: Salmonella enterica; assay: Antimicrobial activity against 10^7 CFU/ml Salmonella enterica ATCC 14028 after 22 hrs by serial microdilution method; type: functional; conditions: ATCC 14028, 22 h
[17] = test system: Candida albicans; assay: Antimicrobial activity against 10^4 CFU/ml Candida albicans ATCC 32354 after 22 hrs by serial microdilution method; type: functional; conditions: ATCC 32354, 22 h
[18] = test system: Candida albicans; assay: Antimicrobial activity against 10^7 CFU/ml Candida albicans ATCC 32354 after 22 hrs by serial microdilution method; type: functional; conditions: ATCC 32354, 22 h
[19] = test system: Pseudomonas aeruginosa; assay: Antimicrobial activity against 10^4 CFU/ml Pseudomonas aeruginosa ATCC 9027 assessed as reduction in CFU/ml at measured at 10 ug/ml after 2.5 hrs by time-kill kinetic study relative to control; type: functional; design: scale not given: the % may be the effect or the level left
[20] = test system: Pseudomonas aeruginosa; assay: Antimicrobial activity against 10^4 CFU/ml Pseudomonas aeruginosa ATCC 9027 assessed as reduction in CFU/ml at measured at 10 ug/ml after 5 hrs by time-kill kinetic study relative to control; type: functional; design: scale not given: the % may be the effect or the level left
[21] = test system: Pseudomonas aeruginosa; assay: Antimicrobial activity against 10^4 CFU/ml Pseudomonas aeruginosa ATCC 9027 assessed as reduction in CFU/ml at measured at 10 ug/ml after 22 hrs by time-kill kinetic study relative to control; type: functional; design: scale not given: the % may be the effect or the level left
[22] = test system: Staphylococcus aureus; assay: Antimicrobial activity against 10^4 CFU/ml Staphylococcus aureus ATCC 25923 assessed as reduction in CFU/ml at measured at 10 ug/ml after 2.5 hrs by time-kill kinetic study relative to control; type: functional; design: scale not given: the % may be the effect or the level left
[23] = test system: Staphylococcus aureus; assay: Antimicrobial activity against 10^4 CFU/ml Staphylococcus aureus ATCC 25923 assessed as reduction in CFU/ml at measured at 10 ug/ml after 5 hrs by time-kill kinetic study relative to control; type: functional; design: scale not given: the % may be the effect or the level left
[24] = test system: Staphylococcus aureus; assay: Antimicrobial activity against 10^4 CFU/ml Staphylococcus aureus ATCC 25923 assessed as reduction in CFU/ml at measured at 10 ug/ml after 22 hrs by time-kill kinetic study relative to control; type: functional; design: scale not given: the % may be the effect or the level left
[25] = test system: Pseudomonas aeruginosa; assay: Antimicrobial activity against 10^7 CFU/ml Pseudomonas aeruginosa ATCC 9027 assessed as reduction in CFU/ml at measured at 10 ug/ml after 2.5 hrs by time-kill kinetic study relative to control; type: functional; design: scale not given: the % may be the effect or the level left
[26] = test system: Pseudomonas aeruginosa; assay: Antimicrobial activity against 10^7 CFU/ml Pseudomonas aeruginosa ATCC 9027 assessed as reduction in CFU/ml at measured at 10 ug/ml after 5 hrs by time-kill kinetic study relative to control; type: functional; design: scale not given: the % may be the effect or the level left
[27] = test system: Pseudomonas aeruginosa; assay: Antimicrobial activity against 10^7 CFU/ml Pseudomonas aeruginosa ATCC 9027 assessed as reduction in CFU/ml at measured at 10 ug/ml after 22 hrs by time-kill kinetic study relative to control; type: functional; design: scale not given: the % may be the effect or the level left
[28] = test system: Staphylococcus aureus; assay: Antimicrobial activity against 10^7 CFU/ml Staphylococcus aureus ATCC 25923 assessed as reduction in CFU/ml at measured at 10 ug/ml after 2.5 hrs by time-kill kinetic study relative to control; type: functional; design: scale not given: the % may be the effect or the level left
[29] = test system: Staphylococcus aureus; assay: Antimicrobial activity against 10^7 CFU/ml Staphylococcus aureus ATCC 25923 assessed as reduction in CFU/ml at measured at 10 ug/ml after 5 hrs by time-kill kinetic study relative to control; type: functional; design: scale not given: the % may be the effect or the level left
[30] = test system: Staphylococcus aureus; assay: Antimicrobial activity against 10^7 CFU/ml Staphylococcus aureus ATCC 25923 assessed as reduction in CFU/ml at measured at 10 ug/ml after 22 hrs by time-kill kinetic study relative to control; type: functional; design: scale not given: the % may be the effect or the level left
[31] = test system: RPMI-8226; assay: Cytotoxicity against human RPMI8226 cells after 72 hrs by MTT assay; type: cell-based; conditions: RPMI-8226, 72 h
[32] = Cytotoxicity against mouse LMTK cells after 72 hrs by MTT assay; type: cell-based; conditions: L-M(TK-)
[33] = test system: HEK-293T; assay: Cytotoxicity against human HEK293T cells after 72 hrs by MTT assay; type: cell-based
[34] = test system: MEF; assay: Cytotoxicity against mouse MEF cells after 72 hrs by MTT assay; type: cell-based
[35] = test system: Bacillus subtilis; assay: Antimicrobial activity against Bacillus subtilis ATCC 6633 at 0.1 ug/ml after 24 hrs by agar diffusion method; type: functional; conditions: ATCC 6633, 24 h, read-out: DIZ
[36] = test system: Staphylococcus aureus; assay: Antimicrobial activity against Staphylococcus aureus ATCC 25923 at 0.1 ug/ml after 24 hrs by agar diffusion method; type: functional; conditions: ATCC 25923, 24 h, read-out: DIZ
[37] = test system: Pseudomonas aeruginosa; assay: Antimicrobial activity against Pseudomonas aeruginosa ATCC 9027 at 0.1 ug/ml after 24 hrs by agar diffusion method; type: functional; conditions: ATCC 9027, 24 h, read-out: DIZ
[38] = test system: Salmonella enterica; assay: Antimicrobial activity against Salmonella enterica ATCC 14028 at 0.1 ug/ml after 24 hrs by agar diffusion method; type: functional; conditions: ATCC 14028, 24 h, read-out: DIZ
[39] = test system: Escherichia coli; assay: Antimicrobial activity against Escherichia coli ATCC 25922 at 0.1 ug/ml after 24 hrs by agar diffusion method; type: functional; conditions: ATCC 25922, 24 h, read-out: DIZ
[40] = test system: Candida albicans; assay: Antimicrobial activity against Candida albicans ATCC 32354 at 0.1 ug/ml after 24 hrs by agar diffusion method; type: functional; conditions: ATCC 32354, 24 h, read-out: DIZ

## CCCCCCCCCC[N+]12CC[N+](CCCCC[N+]34CC[N+](CCCCCCCCCC)(CC3)CC4)(CC1)CC2.[Br-].[Br-].[Br-].[Br-]
[1]
  zone of inhibition at 1 µg/mL: 10 mm
[2]
  zone of inhibition at 1 µg/mL: 10 mm
[3]
  zone of inhibition at 1 µg/mL: 6 mm
[4]
  zone of inhibition at 1 µg/mL: 7 mm
[5]
  zone of inhibition at 1 µg/mL: 10 mm
[6]
  zone of inhibition at 1 µg/mL: 10 mm
[7]
  MBC: < 1.6 µg/mL
  MIC: < 1.6 µg/mL
[8]
  MBC: 3.1 µg/mL
  MIC: 3.1 µg/mL
[9]
  MBC: 1.6 µg/mL
  MIC: 1.6 µg/mL
[10]
  MBC: 25 µg/mL
  MIC: 12.5 µg/mL
[11]
  MBC: 12.5 µg/mL
  MIC: 3.1 µg/mL
[12]
  MBC: 6.3 µg/mL
  MIC: 6.3 µg/mL
[13]
  MBC: 6.3 µg/mL
  MIC: 6.3 µg/mL
[14]
  MBC: 12.5 µg/mL
  MIC: 6.3 µg/mL
[15]
  MBC: 25 µg/mL
  MIC: 12.5 µg/mL
[16]
  MBC: 50 µg/mL
  MIC: 12.5 µg/mL
[17]
  MBC: < 1.6 µg/mL
  MIC: < 1.6 µg/mL
[18]
  MBC: < 1.6 µg/mL
  MIC: < 1.6 µg/mL
[19]
  Activity: 62.3%
[20]
  Activity: 99.2%
[21]
  Activity: 25%
[22]
  Activity: 100%
[23]
  Activity: 100%
[24]
  Activity: 100%
[25]
  Activity: 0%
[26]
  Activity: 43%
[27]
  Activity: 0%
[28]
  Activity: 100%
[29]
  Activity: 100%
[30]
  Activity: 100%
[31]
  IC50: 45.2 µg/mL
[32]
  IC50: 56.4 µg/mL
[33]
  IC50: 93.8 µg/mL
[34]
  IC50: 23.4 µg/mL

## CCCCCCCCCCCCCC[N+]12CC[N+](CCCCC[N+]34CC[N+](CCCCCCCCCCCCCC)(CC3)CC4)(CC1)CC2.[Br-].[Br-].[Br-].[Br-]
[1]
  zone of inhibition at 1 µg/mL: 7 mm
[2]
  zone of inhibition at 1 µg/mL: 8 mm
[3]
  zone of inhibition at 1 µg/mL: 6 mm
[4]
  zone of inhibition at 1 µg/mL: 7 mm
[5]
  zone of inhibition at 1 µg/mL: 7 mm
[6]
  zone of inhibition at 1 µg/mL: 0 mm
[7]
  MBC: 12.5 µg/mL
  MIC: 12.5 µg/mL
[8]
  MBC: 50 µg/mL
  MIC: 12.5 µg/mL
[9]
  MBC: 50 µg/mL
  MIC: 50 µg/mL
[10]
  MBC: > 100 µg/mL
  MIC: > 100 µg/mL
[11]
  MBC: 100 µg/mL
  MIC: 6.3 µg/mL
[12]
  MBC: > 100 µg/mL
  MIC: 50 µg/mL
[13]
  MBC: 50 µg/mL
  MIC: 25 µg/mL
[14]
  MBC: > 100 µg/mL
  MIC: 50 µg/mL
[15]
  MBC: > 100 µg/mL
  MIC: 100 µg/mL
[16]
  MBC: > 100 µg/mL
  MIC: 100 µg/mL
[17]
  MBC: 25 µg/mL
  MIC: 25 µg/mL
[18]
  MBC: 25 µg/mL
  MIC: 25 µg/mL
[31]
  IC50: 252 µg/mL
[32]
  IC50: 219 µg/mL
[33]
  IC50: 400 µg/mL
[34]
  IC50: 127 µg/mL

## CCCCCCCCCCCCCCC[N+]12CC[N+](CCCCC[N+]34CC[N+](CCCCCCCCCCCCCCC)(CC3)CC4)(CC1)CC2
[35]
  zone of inhibition at 0.1 µg/mL: 0 mm
[36]
  zone of inhibition at 0.1 µg/mL: 0 mm
[37]
  zone of inhibition at 0.1 µg/mL: 0 mm
[38]
  zone of inhibition at 0.1 µg/mL: 0 mm
[39]
  zone of inhibition at 0.1 µg/mL: 0 mm
[40]
  zone of inhibition at 0.1 µg/mL: 0 mm
